Converted amounts (≈) assume the structure as drawn.
These compounds were tested on Mycobacterium tuberculosis variant bovis BCG (assay: Antimycobacterial activity against Mycobacterium bovis BCG ATCC 35734 after 5 days by broth dilution method). Settings: ATCC 35734, 120 h.
Format: functional

What does the source list for CCCCCCCCn1cc(CN2CCC3(CCO3)CC2)c2ccc(OC)cc21?
MIC50: 2 µM (≈ 0.797 µg/mL); MIC90: 4 µM (≈ 1.59 µg/mL)

CCCCCCCCn1cc(CN2CCC3(CC2)OCCO3)c2ccc(OCc3ccccc3)cc21 was tested. Which MIC50 did it give?
Its MIC50 is 4 µM (≈ 1.96 µg/mL).

What about the MIC90 of the same compound?
Its MIC90 is 5.5 µM (≈ 2.7 µg/mL).

Which MIC50 does the source give for CCCCCCCCn1cc(CN2CCC3(CC2)OCCCO3)c2ccc(C#N)cc21 here?
The MIC50 was 0.5 µM (≈ 0.212 µg/mL).

And the MIC90?
The MIC90 was 1.2 µM (≈ 0.508 µg/mL).

For CCCCCCCCn1cc(CN2CCC3(CC2)OCCCO3)c2ccc([N+](=O)[O-])cc21, which MIC50 is on record?
Its MIC50 is 0.3 µM (≈ 0.133 µg/mL).

What about the MIC90 of the same compound?
Its MIC90 is 0.8 µM (≈ 0.355 µg/mL).

CCCCCCCCn1ccc2cc(OCCCN3CCC4(CC3)OCCCO4)ccc21 was tested. Which MIC50 did it give?
The MIC50 was 14 µM (≈ 6.2 µg/mL).

And the MIC90?
Its MIC90 is 31 µM (≈ 13.7 µg/mL).

How did the MIC50 turn out when COc1ccc2c(CN3CCCCC3)cn(CCCOc3ccccc3)c2c1 was run?
Its MIC50 is 30 µM (≈ 11.4 µg/mL).

And the MIC90?
The MIC90 was 50 µM (≈ 18.9 µg/mL).

What does the source list for CCCCCCCCn1cc(CN2[C@H]3CCC[C@@H]2CCC3)c2ccc(OC)cc21?
MIC50: 3.8 µM (≈ 1.51 µg/mL); MIC90: 7.6 µM (≈ 3.01 µg/mL)

How did the MIC50 turn out when CCCCCCCCn1cc(CN2CCC3(C2)CC3(F)F)c2ccc(OC)cc21 (stereo unspecified) was run?
Its MIC50 is 13 µM (≈ 5.26 µg/mL).

What about the MIC90 of the same compound?
Its MIC90 is 18 µM (≈ 7.28 µg/mL).

For COc1ccc2c(CN3CCCCC3)cn(CCCOc3ccc(C)cc3)c2c1, which MIC50 is on record?
Its MIC50 is 19 µM (≈ 7.46 µg/mL).

And the MIC90?
The MIC90 was 41 µM (≈ 16.1 µg/mL).

Which MIC50 does the source give for COc1ccc(CCCn2cc(CN3CCCCC3)c3ccc(OC)cc32)cc1 here?
The MIC50 was 18 µM (≈ 7.07 µg/mL).

And the MIC90?
Its MIC90 is 39 µM (≈ 15.3 µg/mL).

What does the source list for COc1ccc(OCCCn2cc(CN3CCC4(CC3)OCCO4)c3ccc(OC)cc32)cc1?
MIC50: 6 µM (≈ 2.8 µg/mL); MIC90: 13 µM (≈ 6.07 µg/mL)

For COc1ccc2c(CN3CCC4(CC3)OCCO4)cn(C/C=C/c3ccccc3)c2c1, which MIC50 is on record?
Its MIC50 is 15 µM (≈ 6.28 µg/mL).

And the MIC90?
Its MIC90 is 31 µM (≈ 13 µg/mL).

What does the source list for CCCCCCCCn1cc(CN2CCC3(CC2)OCCO3)c2ccc([N+](=O)[O-])cc21?
MIC50: 0.8 µM (≈ 0.344 µg/mL); MIC90: 1.6 µM (≈ 0.687 µg/mL)

How did the MIC50 turn out when CCCCCCCCn1cc(CN2CCCCC2)c2ccc(C#N)cc21 was run?
The MIC50 was 2 µM (≈ 0.703 µg/mL).

And the MIC90?
The MIC90 was 6 µM (≈ 2.11 µg/mL).

Which results are given for CCCCCCCCn1cc(CN2CCC3(CC2)OCCCO3)c2ccc(OC(C)C)cc21?
MIC50: 0.6 µM (≈ 0.274 µg/mL); MIC90: 1.6 µM (≈ 0.731 µg/mL)

With COc1ccc(CCCn2cc(CN3CCC4(CC3)OCCCO4)c3ccc(OC)cc32)cc1 as the compound, how does the MIC50 read?
Its MIC50 is 4.1 µM (≈ 1.9 µg/mL).

What about the MIC90 of the same compound?
The MIC90 was 9.3 µM (≈ 4.32 µg/mL).

What does the source list for COc1ccc2c(CN3CCC4(CC3)OCCCO4)cn(CCCOCc3ccccc3)c2c1?
MIC50: 2 µM (≈ 0.929 µg/mL); MIC90: 6 µM (≈ 2.79 µg/mL)

For CCCCCCCCn1cc(CN2CCOC3(CCCOC3)C2)c2ccc(OC)cc21 (stereo unspecified), which MIC50 is on record?
Its MIC50 is 1.8 µM (≈ 0.772 µg/mL).

What about the MIC90 of the same compound?
The MIC90 was 6.3 µM (≈ 2.7 µg/mL).

What does the source list for COc1ccc2c(CN3CCC4(CC3)OCCO4)cn(CCCCc3ccccc3)c2c1?
MIC50: 4.9 µM (≈ 2.13 µg/mL); MIC90: 11.5 µM (≈ 5 µg/mL)

Which results are given for CCCCCCCCn1cc(CN2CCC3(CC2)OC[C@H](C)O3)c2ccc(OC)cc21?
MIC50: 0.5 µM (≈ 0.214 µg/mL); MIC90: 0.9 µM (≈ 0.386 µg/mL)

What does the source list for CCCCCCCCn1cc(CN2CCC3(CCN(Cc4ccccc4)CC3)CC2)c2ccc(OC)cc21?
MIC50: 2.3 µM (≈ 1.19 µg/mL); MIC90: 4.4 µM (≈ 2.27 µg/mL)

What does the source list for COc1ccc2c(CN3CCC4(CC3)OCCCO4)cn(CCCCOc3ccccc3)c2c1?
MIC50: 11 µM (≈ 5.11 µg/mL); MIC90: 25 µM (≈ 11.6 µg/mL)

Which MIC50 does the source give for COc1ccc2c(CN3CCC4(CC3)OCCO4)cn(CCCOc3ccc(C)cc3)c2c1 here?
Its MIC50 is 4.8 µM (≈ 2.16 µg/mL).

What about the MIC90 of the same compound?
Its MIC90 is 11 µM (≈ 4.96 µg/mL).

Which MIC50 does the source give for CCCCCCCCn1ccc2c(OCCCN3CCCC3)cccc21 here?
Its MIC50 is 18 µM (≈ 6.42 µg/mL).

What about the MIC90 of the same compound?
The MIC90 was 36 µM (≈ 12.8 µg/mL).

With CCCCCCCCn1ccc2c(OCCCN3CCCCCC3)cccc21 as the compound, how does the MIC50 read?
The MIC50 was 9.5 µM (≈ 3.65 µg/mL).

And the MIC90?
The MIC90 was 22 µM (≈ 8.46 µg/mL).

Which results are given for COc1ccc2c(CN3CCC4(CC3)OCCO4)cn(CCCOCc3ccccc3)c2c1?
MIC50: 16 µM (≈ 7.21 µg/mL); MIC90: 40 µM (≈ 18 µg/mL)

Which MIC50 does the source give for COc1ccc2c(CN3CCCCC3)cn(CCCOc3ccc(C)c(C)c3)c2c1 here?
Its MIC50 is 18 µM (≈ 7.32 µg/mL).

What about the MIC90 of the same compound?
The MIC90 was 25 µM (≈ 10.2 µg/mL).

For CCCCCCCCn1cc(CN2CC(n3cccn3)C2)c2ccc(OC)cc21, which MIC50 is on record?
The MIC50 was 6 µM (≈ 2.37 µg/mL).

What about the MIC90 of the same compound?
Its MIC90 is 15 µM (≈ 5.92 µg/mL).

COc1ccc2c(CN3CCC4(CC3)OCCO4)cn(CCCOc3ccc(C)c(C)c3)c2c1 was tested. Which MIC50 did it give?
Its MIC50 is 4.6 µM (≈ 2.14 µg/mL).

What about the MIC90 of the same compound?
The MIC90 was 11 µM (≈ 5.11 µg/mL).

Which MIC50 does the source give for COc1ccc2c(CN3CCC4(CC3)OCCCO4)cn(C/C=C/c3ccccc3)c2c1 here?
Its MIC50 is 4.8 µM (≈ 2.08 µg/mL).

What about the MIC90 of the same compound?
Its MIC90 is 9 µM (≈ 3.89 µg/mL).

With CCCCCCCCn1cc(CN2CCC3(CC2)OCCCO3)c2cc([N+](=O)[O-])ccc21 as the compound, how does the MIC50 read?
The MIC50 was 7 µM (≈ 3.11 µg/mL).

What about the MIC90 of the same compound?
The MIC90 was 18 µM (≈ 7.98 µg/mL).

Which MIC50 does the source give for COc1ccc2c(CN3CCCCC3)cn(CCCCOc3ccccc3)c2c1 here?
Its MIC50 is 16 µM (≈ 6.28 µg/mL).

And the MIC90?
The MIC90 was 41 µM (≈ 16.1 µg/mL).

What does the source list for CCCCCCCCn1cc(CNC2CCC3(CC2)OCCO3)c2ccc(OC)cc21?
MIC50: 3.6 µM (≈ 1.54 µg/mL); MIC90: 6.3 µM (≈ 2.7 µg/mL)

What does the source list for CCCCCCCCn1cc(CN2CCC3(CC2)OCCCO3)c2cccc([N+](=O)[O-])c21?
MIC50: 1.3 µM (≈ 0.577 µg/mL); MIC90: 3.1 µM (≈ 1.38 µg/mL)

Which results are given for CCCCCCCCn1ccc2cc(OCCN3CCCCCC3)ccc21?
MIC50: 2 µM (≈ 0.741 µg/mL); MIC90: 6 µM (≈ 2.22 µg/mL)

How did the MIC50 turn out when CCCCCCCCn1cc(CNCC2CC3CCC2C3)c2ccc(OC)cc21 (stereo unspecified) was run?
The MIC50 was 1.1 µM (≈ 0.436 µg/mL).

And the MIC90?
The MIC90 was 1.9 µM (≈ 0.754 µg/mL).

What does the source list for CCCCCCCCn1cc(CN2CCCC(=O)CC2)c2ccc(OC)cc21?
MIC50: 17 µM (≈ 6.54 µg/mL); MIC90: 42 µM (≈ 16.2 µg/mL)

How did the MIC50 turn out when CCCCCCCCn1ccc2cccc(OCCCN3CCCC3)c21 was run?
Its MIC50 is 10 µM (≈ 3.57 µg/mL).

What about the MIC90 of the same compound?
Its MIC90 is 22 µM (≈ 7.84 µg/mL).

Which MIC50 does the source give for CCCCCCCCn1cc(CN2CCC3(CCc4ccccc43)CC2)c2ccc(OC)cc21 here?
The MIC50 was 1 µM (≈ 0.459 µg/mL).

What about the MIC90 of the same compound?
The MIC90 was 2 µM (≈ 0.917 µg/mL).

For CCCCCCCCn1cc(CN2CCC3(CC2)OCCCO3)c2ccc(OCCC)cc21, which MIC50 is on record?
The MIC50 was 0.7 µM (≈ 0.32 µg/mL).

And the MIC90?
The MIC90 was 1.2 µM (≈ 0.548 µg/mL).

For CCCCCCCCn1cc(CN2CCCCC2)c2ccc(OC(C)C)cc21, which MIC50 is on record?
Its MIC50 is 4 µM (≈ 1.54 µg/mL).

What about the MIC90 of the same compound?
Its MIC90 is 6 µM (≈ 2.31 µg/mL).

COc1ccc2c(CN3CCC4(CC3)OCCO4)cn(CCCOc3ccc(F)cc3)c2c1 was tested. Which MIC50 did it give?
Its MIC50 is 5 µM (≈ 2.27 µg/mL).

And the MIC90?
The MIC90 was 11 µM (≈ 5 µg/mL).

For COc1ccc2c(CN3CCC4(CC3)OCCO4)cn(CCCc3ccccc3)c2c1, which MIC50 is on record?
The MIC50 was 6 µM (≈ 2.52 µg/mL).

What about the MIC90 of the same compound?
The MIC90 was 18 µM (≈ 7.57 µg/mL).
